For this assay, the target named is RSK4 (Homo sapiens, UniProt Q9UK32). Kind of assay: Kinase-Glo Plus luminescence kinase assay. The note with it: […] ATP, […] MgCl2, pH […] °C, […] min, […] DMSO. It counts as biochemical. On the technique in general: In Kinase-Glo more light means more ATP remaining.
RSK4, sequence (Q9UK32 whole entry): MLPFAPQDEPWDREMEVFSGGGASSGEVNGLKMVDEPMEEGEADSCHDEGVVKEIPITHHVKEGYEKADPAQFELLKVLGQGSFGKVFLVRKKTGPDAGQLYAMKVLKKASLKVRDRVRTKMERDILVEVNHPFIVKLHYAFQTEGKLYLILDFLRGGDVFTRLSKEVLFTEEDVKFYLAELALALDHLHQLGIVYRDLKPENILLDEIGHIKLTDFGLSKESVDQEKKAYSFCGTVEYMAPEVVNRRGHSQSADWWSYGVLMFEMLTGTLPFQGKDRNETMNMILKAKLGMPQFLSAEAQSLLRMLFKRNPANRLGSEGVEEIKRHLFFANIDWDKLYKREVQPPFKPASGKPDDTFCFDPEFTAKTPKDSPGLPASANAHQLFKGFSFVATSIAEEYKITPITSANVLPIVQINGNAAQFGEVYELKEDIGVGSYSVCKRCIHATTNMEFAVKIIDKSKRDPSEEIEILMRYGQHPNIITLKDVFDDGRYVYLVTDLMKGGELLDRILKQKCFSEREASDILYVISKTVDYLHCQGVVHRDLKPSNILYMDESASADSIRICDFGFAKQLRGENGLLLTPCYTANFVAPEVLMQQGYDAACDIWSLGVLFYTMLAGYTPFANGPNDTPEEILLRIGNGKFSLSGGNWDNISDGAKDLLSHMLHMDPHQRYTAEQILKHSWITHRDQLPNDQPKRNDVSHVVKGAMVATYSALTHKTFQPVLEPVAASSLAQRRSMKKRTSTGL

On to `Cc1cc(=O)n(C2CCCCC2)c2nc(Nc3ccc4[nH]ccc4c3)ncc12` [R635, 2-((1H-indol-5-yl)amino)-8-cyclohexyl-5-methylpyrido[2,3-d]pyrimidin-7(8H)-one], for which the half-inhibitory concentration (IC50) came to 45.9 ± 3.11 nM.

For `Cc1cc(=O)n(C2CCC(F)(F)C2)c2nc(Nc3ccc4c(c3)CC(=O)N4)ncc12` (centres unmarked) [R634], the IC50 turned out to be 86.3 ± 40.7 nM.

The IC50 is the concentration at which inhibition is half-maximal.

Values taken from doi:10.1101/2025.06.02.657523v1 (biorxiv, 2025).
